Like-named read-outs stand apart in the source and are kept apart here.
Assays:
[1] = tested on: Japanese females after menopause; assay: Change in bone mineral density after 6 month administration of a medicine, by VDR/ER/ApoE4 genotype (Reference Example 1); type: in vivo, human; conditions: for Average therapeutic effect (%) - Anticipated therapeutic effect (%) / Anticipated therapeutic effect value (index of change in bone mineral density) after 6 month administration of a medicine, Average: 6 months; for Anticipated therapeutic effect value (index of change in bone mineral density) after 6 month administration of a medicine, Average: total average on randomly sampled patients, vitamin D 1 μg/day, estrogen 0.312 mg/day, vitamin K2 45 mg/day
Description: In the present invention, the pluralities of remedies for osteoporosis are preferably vitamin D, estrogen, and vitamin K2. Here, the sensitivity to a remedy for osteoporosis means the degree of therapeutic effect of the remedy on osteoporosis. That is, in the case where a medicine A is higher in therapeutic effect than a medicine B in a patient, “the sensitivity of the patient to the medicine A is higher than the sensitivity to the medicine B”. In the present invention, using a change in bone mineral density before and after administration of a medicine as an index of sensitivity, it is defined that the greater the value of “index of change in bone mineral density”−“index of change in anticipated bone mineral density”, the higher is the sensitivity to the medicine.
Blood was collected from 177 Japanese females after menopause randomly selected and blood cells were fractionated and genome DNA was extracted and purified by conventional methods. A VDR gene fragment, an ER gene fragment, and an ApoE gene fragment were separately amplified using the genome DNA as a template and the following primer pairs.
The PCR conditions were denaturation: 94° C., 60 seconds; annealing: 62° C., 60 seconds; elongation: 72° C., 60 seconds (30 cycles) for the VDR gene, denaturation: 94° C., 30 seconds; annealing: 65° C., 30 seconds; elongation: 72° C., 30 seconds (30 cycles) for the ER gene, and denaturation: 94° C., 30 seconds; annealing: 61° C., 40 seconds; elongation: 72° C., 90 seconds (30 cycles) for the ApoE gene. This PCP amplification gave a VDR gene fragment of 7.2 kbp, an ER gene fragment of 1.3 kbp, and an ApoE gene fragment of 244 bp containing polymorphism sites, respectively. After treating a VDR gene amplification reaction mixture with Bsm I, an ER gene amplification reaction mixture with Xba I, and an ApoE gene amplification reaction mixture with Hha I, the reaction mixtures were subjected to agarose gel electrophoresis. In the case where each amplification product was cleaved with the restriction enzyme at the polymorphism site, bands of 4.6 kbp and 2.6 kbp were detected for the VDR amplification product, bands of 900 bp and 400 bp were detected for the ER amplification product, and bands of 72,48, 38, 35, 19, 17, and 15 bp were detected for the ApoE amplification product.
The band of 72 bp was not detected in the case where there is no typE4 (that is, 4(−)). After the electrophoresis, the gels were dyed with ethidium bromide and polymorphisms of the VDR, ER, and ApoE genes were discriminated based on the band patterns and classified into 8 polymorphism groups (Table 3).
(§1) The 177 Japanese females after the polymorphism analysis as described above were each measured for bone mineral density. Then, one of vitamin D, estrogen, and vitamin K2 was administered to the patients for 6 months. The administration amount was 1μg/day for vitamin D, 0.312 mg/day for estrogen, and 45 mg/day for vitamin K2. After 6 months, the bone mineral density was measured again and an index of change in bone mineral density between before and after the administration of a medicine was obtained. A value obtained by subtracting an anticipated value of therapeutic effect of each medicine (total average therapeutic effect on randomly sampled patients; Table 3) from an average index of change in bone mineral density for each genotype was defined as sensitivity to a medicine for each genotype.

[2] = tested on: Japanese females after menopause; assay: Change in bone mineral density after administration of a medicine, by VDR/ER/ApoE3 genotype (Reference Example 2); type: in vivo, human
Description: as §1
Blood was collected from 167 Japanese females after menopause randomly selected and blood cells were fractionated and genome DNA was extracted and purified by conventional methods. A VDR gene fragment, an ER gene fragment and an ApoE gene fragment were separately amplified using the genome DNA as a template and the same primer pairs as in Reference Example 1 under the same amplification conditions.
After treating the gene amplification reaction mixtures with a restriction enzyme respectively, the reaction mixtures were subjected to agarose gel electrophoresis. In the case where each amplification product was cleaved with the restriction enzyme at the polymorphism site, bands of 4.6 kbp and 2.6 kbp were detected for the VDR amplification product, bands of 900 bp and 400 bp were detected for the ER amplification product, and bands of 72, 48, 38, 35, 19, 17, and 15 bp were detected for the ApoE amplification product.
To detect ApoE3 type alleles, the amplification products were treated with Hha I, and were subjected to agarose electrophoresis gel. After the electrophoresis, the gels were dyed with ethidium bromide and polymorphisms of the ApoE genes were discriminated based on the band patterns and ApoE3 types identified as a combination of bands as below described.
The 8 polymorphism groups were classified (Table 4).

[3] = cited from earlier work
[4] = VDR genotype A (not cleaved with Apa I) compared with genotype a; cited from earlier work
[5] = DBP genotype group of the GC2-2 type compared with the other groups; cited from earlier work

| Compound | Average therapeutic effect (%) - Anticipated therapeutic effect (%) ([1]; genotype B(+)x(+)4(−)) | Average therapeutic effect (%) - Anticipated therapeutic effect (%) ([1]; genotype B(+)x(−)4(+)) | Average therapeutic effect (%) - Anticipated therapeutic effect (%) ([1]; genotype B(+)x(−)4(−)) | Average therapeutic effect (%) - Anticipated therapeutic effect (%) ([1]; genotype B(−)X(+)4(−)) | Average therapeutic effect (%) - Anticipated therapeutic effect (%) ([1]; genotype B(−)X(−)4(+)) | Average therapeutic effect (%) - Anticipated therapeutic effect (%) ([1]; genotype B(−)X(−)4(−)) | Anticipated therapeutic effect value (index of change in bone mineral density) after 6 month administration of a medicine, Average [1] | Average therapeutic effect (%) - Anticipated therapeutic effect (%) ([2]; genotype B(+)X(+)3(+)) | Average therapeutic effect (%) - Anticipated therapeutic effect (%) ([2]; genotype B(+)X(−)3(+)) | Average therapeutic effect (%) - Anticipated therapeutic effect (%) ([2]; genotype B(−)X(+)3(+)) | Average therapeutic effect (%) - Anticipated therapeutic effect (%) ([2]; genotype B(−)X(−)3(+)) | Average therapeutic effect (%) - Anticipated therapeutic effect (%) ([2]; genotype B(−)X(−)3(−)) | Average therapeutic effect (%) - Anticipated therapeutic effect (%) ([1]; genotype B(−)X(+)4(+)) | Average therapeutic effect (%) - Anticipated therapeutic effect (%) ([2]; genotype B(+)X(−)3(−)) | Average therapeutic effect (%) - Anticipated therapeutic effect (%) ([2]; genotype B(−)X(+)3(−)) | also measured |
| --- | --- | --- | --- | --- | --- | --- | --- | --- | --- | --- | --- | --- | --- | --- | --- | --- |
| CC(C)=CCC/C(C)=C/CC/C(C)=C/CC/C(C)=C/CC1=C(C)C(=O)c2ccccc2C1=O [Vitamin K2, vitamin K2] | 1.46% | −0.59% | 1.08% | 0.60% | −2.68% | 0.68% | 0.59% | 3.248% | 1.852% | −0.2083% | −0.8443% | −2.855% | – | – | – | sensitivity to the medicine relative to the other two medicines ([1]; genotypes [B(−) X(−) 4(−)] and [B(+) X(−) 4(−)]): higher than the sensitivity to vitamin D and the sensitivity to estrogen; sensitivity to vitamin K2 ([3]; ApoE4(+) group compared with ApoE4(−) group): significantly lower |
| estrogen | 1.74% | −1.07% | −0.93% | 2.78% | −2.52% | −0.94% | 3.26% | 0.4144% | −0.8961% | 3.741% | −0.07099% | −1.151% | 7.87% | 0.03227% | 4.514% | sensitivity to the medicine relative to the other two medicines ([1]; genotypes [B(−) X(+) 4(−)], [B(−) X(+) 4(+)], [B(+) X(+) 4(−)] and [B(+) X(+) 4(+)]): higher than the sensitivity to vitamin D and the sensitivity to vitamin K2; sensitivity to estrogen ([3]; ER genotype PpXx compared with other genotype groups): significantly higher |
| vitamin D | −1.75% | −0.27% | −0.66% | 0.37% | 0.56% | 0.05% | 1.15% | −0.6927% | 0.02042% | 1.643% | 0.4017% | 1.498% | 0.34% | 2.234% | −3.114% | Average therapeutic effect (%) - Anticipated therapeutic effect (%) ([1]; genotype B(+)x(+)4(+)): 0.46%; sensitivity to the medicine relative to the other two medicines ([1]; genotype [B(−) X(−) 4(+)]): higher than the sensitivity to vitamin K2 and the sensitivity to estrogen; Average therapeutic effect (%) - Anticipated therapeutic effect (%) ([2]; genotype B(+)X(+)3(−)): 0.461%; sensitivity to vitamin D ([3]; VDR genotype AAB compared with aabb): significantly lower; sensitivity to vitamin D [4]: more sensitive; sensitivity to vitamin D [5]: higher in sensitivity |

Source: US6566064B1, “Method for anticipating sensitivity to medicine for osteoporosis” (Nipro Corporation, priority 1999, dated 2003)
